# Assay results as given in ChEMBL document CHEMBL1800060, “Enhancement of transcriptional activity of mutant p53 tumor suppressor protein through stabilization of tetramer formation by calix[6]arene derivatives” (Bioorg Med Chem Lett, 2010).
# Active and inactive are the calls of the source. The calls are words filed in the database; no cut-off is given here.
# Key:
# [1] = test system: Cellular tumor antigen p53 (Homo sapiens), P04637 [R337H]; assay: Enhancement of transcriptional activity of EGFP tagged p53 tetramerization domain-Arg337His mutant peptide in NCI-H1299 cells transfected with p53RE-mCherry(NLS) reporter plasmid assessed as increase in fluorescence signal at 20 uM after 11 hrs by fluorescence assay relative to untreated control; assay type: cell-based
# [2] = test system: Cellular tumor antigen p53 (Homo sapiens), P04637 [R337H]; assay: Enhancement of transcriptional activity of EGFP tagged p53 tetramerization domain-Arg337His mutant peptide in NCI-H1299 cells transfected with p53RE-mCherry(NLS) reporter plasmid assessed as increase in fluorescence signal at 20 uM after 11 hrs by fluorescence assay; assay type: cell-based
# [3] = test system: Cellular tumor antigen p53 (Homo sapiens), P04637 [R337H]; assay: Thermal stabilization of p53 tetramerization domain-Arg337His mutant peptide assessed as change in transition temperature at 40 uM by CD spectroscopy
# [4] = molecular target: Cellular tumor antigen p53 (Homo sapiens) (UniProt P04637); assay: Enhancement of transcriptional activity of wild type p53 in NCI-H1299 cells transfectedp53RE-mCherry(NLS) reporter plasmid assessed as increase in fluorescence signal at 20 uM after 11 hrs by fluorescence assay; assay type: cell-based
# [5] = test system: Cellular tumor antigen p53 (Homo sapiens), P04637 [R337H]; assay: Thermal stabilization of p53 tetramerization domain-Arg337His mutant peptide assessed as change in transition temperature at 10 uM by CD spectroscopy
# [6] = test system: Cellular tumor antigen p53 (Homo sapiens), P04637 [R273H]; assay: Enhancement of transcriptional activity of p53 DNA binding domain Arg273His mutant in NCI-H1299 cells transfected p53RE-mCherry(NLS) reporter plasmid assessed as increase in fluorescence signal at 20 uM after 11 hrs by fluorescence assay; assay type: cell-based
Activity [1] [%],Activity [2],deltaT [3] [°C],Activity [4],deltaT [5] [°C],Activity [6],SMILES
130,Active,4.1,Active,2.3,inactive,COc1c2cc(Cn3ccnc3)cc1Cc1cc(Cn3ccnc3)cc(c1OC)Cc1cc(Cn3ccnc3)cc(c1OC)Cc1cc(Cn3ccnc3)cc(c1OC)Cc1cc(Cn3ccnc3)cc(c1OC)Cc1cc(Cn3ccnc3)cc(c1OC)C2
,,,,0,,COc1c2cc(Cn3cccn3)cc1Cc1cc(Cn3cccn3)cc(c1OC)Cc1cc(Cn3cccn3)cc(c1OC)Cc1cc(Cn3cccn3)cc(c1OC)Cc1cc(Cn3cccn3)cc(c1OC)Cc1cc(Cn3cccn3)cc(c1OC)C2
,inactive,-0.3,,0.3,,N=C(N)NCc1cc2c3c(c1)Cc1cc(CNC(=N)N)cc4c1OCCOCCOc1c(cc(CNC(=N)N)cc1Cc1cc(CNC(=N)N)cc(c1OCCOCCO3)C2)C4
